Test results published in PubChem BioAssay (NCI).
Where “and” joins values, the source holds several entries; their conditions need not be identical. Identical values can stand only once.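 The compound was tested at five concentrations on cells cultured in 96-well plates, with a 48-hour exposure period. GI50: concentration for 50% inhibition of growth. Definition used: TGI = concentration required for complete inhibition of growth.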

Tests used:
Assay in all cases: NCI tumour cell line growth inhibition, 48 h
A498 renal = tested on: A498 renal
HT29 colon = tested on: HT29 colon
NCI/ADR-RES ovarian = tested on: NCI/ADR-RES ovarian
OVCAR-8 ovarian = tested on: OVCAR-8 ovarian
RXF 393 renal = tested on: RXF 393 renal
SK-MEL-5 melanoma = tested on: SK-MEL-5 melanoma
SN12C renal = tested on: SN12C renal
SNB-75 CNS = tested on: SNB-75 CNS
SR leukemia = tested on: SR leukemia
TK-10 renal = tested on: TK-10 renal

Row | SMILES | GI50 (A498 renal) | TGI (A498 renal) | GI50 (HT29 colon) [nM] | TGI (HT29 colon) | GI50 (NCI/ADR-RES ovarian) [µM] | TGI (NCI/ADR-RES ovarian) [µM] | GI50 (OVCAR-8 ovarian) | TGI (OVCAR-8 ovarian) | GI50 (RXF 393 renal) [nM] | TGI (RXF 393 renal) | GI50 (SK-MEL-5 melanoma) [nM] | TGI (SK-MEL-5 melanoma) | GI50 (SN12C renal) [nM] | TGI (SN12C renal) | GI50 (SNB-75 CNS) [nM] | TGI (SNB-75 CNS) | GI50 (SR leukemia) | TGI (SR leukemia) | GI50 (TK-10 renal) [µM] | TGI (TK-10 renal)
1 | OCc1ccc(-c2ccc(-c3ccc(CO)o3)o2)o1 | 0.18 µM | 0.39 µM | > 85900 | > 100 µM | > 100 | > 100 | > 100000 nM | > 100 µM | 26500 | > 90 µM | > 100000 | > 100000 nM | > 100000 | > 100 µM | 23200 | 79.7 µM | > 100000 nM | > 100 µM | 2.63 | 19.8 µM
2 | N=C(N)n1cc(/C=N/N=C(N)N)cn1 |  | > 100 µM |  | > 100 µM |  | > 100 |  | > 100 µM |  | > 100 µM |  | > 100000 nM |  | > 100 µM |  | > 100 µM |  | > 100 µM |  | > 100 µM
3 | COc1cc2c(c3c1c(=O)c1ccccc1n3C)C=C([N+](=O)[O-])C(C)(C)O2 |  | 12.5 µM |  | > 100 µM |  | > 100 |  | > 100 µM |  | 0.328 µM |  | 56.7 nM |  | > 100 µM |  | > 100 µM |  | > 100 µM |  | > 100 µM
4 | O=C1Nc2ccc(-c3cccnc3)cc2/C1=C/c1cc(Br)c(O)c(Br)c1 | 3.86 µM | 11.5 µM | 7060 | > 25 µM | > 20 | > 25 | 9890 nM | > 25 µM | 6080 | > 19.9 µM | 3950 | 7780 nM | 9120 | > 25 µM | > 13000 | > 25 µM | 8240 nM | > 25 µM | 7.82 | 24.3 µM
5 | COC(=O)c1ccc(NC(N)=NCCC(C)(C)c2ccc(C(F)(F)F)cc2)nc1 | 2.64 µM | 14.7 µM | 2550 | 6.83 µM | 2.35 | 6.03 | 2040 nM | 4.63 µM | 2180 | 5.06 µM | 1560 | 2990 nM | 1700 | 3.25 µM | 5510 | 19.8 µM | 892 nM | 2.91 µM | 4.75 | 17.6 µM
6 | CCc1ccc(Oc2c(-c3ccc(OCc4ccc(Cl)cc4)cc3O)nn(C)c2C(F)(F)F)cc1 | 1.28 µM | 2.93 µM | 580 | 2.11 µM | 0.905 | 4.47 | 1350 nM | 3.79 µM | 1140 | 2.59 µM | 1220 | 2470 nM | 1040 | 2.48 µM | 1340 | 4.49 µM | 502 nM | 3.76 µM | 1.23 | 3.18 µM
7 | CO[C@H]1C(=O)[C@]2(C)[C@@H](OC)C[C@H]3OC[C@@]3(OC(C)=O)[C@H]2[C@H](OC(=O)c2ccccc2)[C@]2(O)C[C@H](OC(=O)[C@H](O)[C@@H](NC(=O)OC(C)(C)C)c3ccccc3)C(C)=C1C2(C)C | < 0.01 µM | 10.1 µM | < 10 | 11.5 µM | 0.0269 | 1.24 | < 10 nM | > 100 µM | < 10 | 10.7 µM | < 10 | 17300 nM | < 10 | > 100 µM | < 10 | < 0.01 µM | < 10 nM |  | < 0.01 | 31.3 µM
8 | CC[n+]1c(-c2ccccc2)c2cc(N)ccc2c2ccc(N)cc21 | 5.18 µM and 4.76 µM and 14.7 µM | 40.8 µM and 52.5 µM and 66.2 µM | 1640 | 9.45 µM and 29 µM |  | > 100 | 695 nM and 1370 nM and 2940 nM | 12.2 µM and 16.2 µM and 33.2 µM | 1070 | 3.51 µM and 17.1 µM | 864 | 2140 nM and 2600 nM | 306 | 12 µM and 19.7 µM and 7.37 µM | 1290 | 3.16 µM and 1.14 µM | 801 nM and 1690 nM and 4080 nM | > 100 µM and 13 µM | 2.38 | 19.7 µM and 68.8 µM
9 | O=C(CCCCN1CCN(CCCCC(=O)Nc2ccccc2C#C/C=C\C#Cc2ccccc2C(F)(F)F)CC1)Nc1ccccc1C#C/C=C\C#Cc1ccccc1C(F)(F)F | 11.7 µM | 22.9 µM | 7110 | 26.2 µM | 9.64 | 20 | 12200 nM | 28.5 µM | 9810 | 23.5 µM | 9260 | 16900 nM | 17600 | > 50 µM | 10300 | 26.9 µM | 3230 nM | 16.6 µM | 16.6 | 36 µM
10 | COc1cccc(-c2cc(=O)c3cc(N4CCN(C)CC4)ccc3[nH]2)c1 |  | 5.32 µM | 1780 | 5.68 µM and 5.83 µM | 3.68 |  | 1780 nM | 4.99 µM and 6.39 µM | 238 | 5.77 µM and 0.976 µM | 766 |  | 4680 | > 100 µM | 612 | 65.1 µM |  | 2.49 µM | 13.5 | 94.6 µM
11 | CCOC(=O)[C@@H](C)C[C@H](Cc1ccccc1)NC(=O)c1csc([C@@H](C[C@H](C(C)C)N(C)C(=O)CNC(=O)[C@H]2CCCCN2C)OC(C)=O)n1 | 0.464 µM | 1.38 µM | 467 | > 14.3 µM | > 14.3 | > 14.3 | 2840 nM | > 14.3 µM | 502 | 4.62 µM | 444 | > 7300 nM | 2180 | > 14.3 µM | 534 | > 14.3 µM | 145 nM | > 14.3 µM | > 7.9 | > 14.3 µM
